Data reported in US9314536B2, “Compounds and methods for the treatment of EGFR positive diseases” (Bio-Thera Solutions, Ltd., Co., priority 2012, dated 2016).

Key:
tubulin = assay: HTS-Tubulin Polymerization Assay Kit, tubulin polymerization in vitro; type: biochemical; settings: 1 μM stock, 10 μL added to 100 μL 4 mg/ml tubulin, 37° C., 405 nm; compared with the PBS buffer
Protocol: The effect of 3AA-MDC, 206-3AA-MDC (206 is an anit-EGFR antibody containing a light chain with sequence shown in Seq ID 1 and a heavy chain with amino acid sequence shown in Seq ID 2, and it was prepared as described in example 7) and the metabolites (Cys-3AA-MDC and Lys-mcc-MDC) of prodrug antibody maytansinoid conjugates on the tubulin polymerization in vitro was assessed by HTS-Tubulin Polymerization Assay Kit (BK004P, Cytoskeleton, Inc., USA). According to the instruction of kit, pre-warm the 96-well plate to 37° C. for 30 min prior to starting the assay. At the same time, the spectrophotometer (SpectraMax, Molecular Devices, USA) was set as follow: wavelength, 405 nm; temperature, 37° C.; Kinetic, 31 cycles of 1 reading per minute. Make cold G-PEM buffer (990 μL General Tubulin Buffer+10 μL GTP Stock) and keep it on ice. Prepare 4 mg/mL tubulin, 1 μM L-3AA-MDC (N2′-deacetyl-N2′-(6-maleimido-1-oxo-hexyl)maytansine), 1 μM 206-3AA-MDC, 1 μM cys-3AA-MDC, 1 μM lys-mcc-MDC, 100 μM Paclitaxel, and 100 μM Nocodazole. Add 10 μL G-PEM, 3AA-MDC, 206-3AA-MDC, cys-3AA-MDC, lys-mcc-MDC, Paclitaxel, Nocodazole into the wells, and then add 100 μL 4 mg/ml tubulin to each well. Immediately place the plate into the spectrophotometer and start recording using the kinetic setup described above. […] Nocodazole, the tubulin polymerization inhibitor, was set as a negative control. […]

[1] = system: human acute lymphoblastic leukemia line C.E.M.; settings: cited from earlier work
[2] = versus methotrexate, daunorubicin, and vincristine; cited from earlier work

Row | SMILES | inhibition of tubulin polymerization (tubulin) | inhibitory concentration (as low as) [1] | fold more cytotoxic than conventional chemotherapeutic agents [2]
1 | COc1cc2cc(c1Cl)N(C)C(=O)C[C@H](OC(=O)[C@H](C)N(C)C(=O)CCCCCN1C(=O)C=CC1=O)[C@]1(C)OC1[C@H](C)[C@@H]1C[C@@](O)(NC(=O)O1)[C@H](OC)/C=C/C=C(\C)C2 (stereo partly shown) [3AA-MDC, N2′-deacetyl-N2′-(6-maleimido-1-oxo-hexyl)-maytansine] | more significantly inhibited the tubulin polymerization | – | –
2 | COc1cc2cc(c1Cl)N(C)C(=O)C[C@H](OC(=O)[C@H](C)N(C)C(=O)CCSC1CC(=O)N(CC3CCC(C(=O)NCCCC[C@H](N)C(=O)O)CC3)C1=O)[C@]1(C)O[C@H]1[C@H](C)[C@@H]1C[C@@](O)(NC(=O)O1)[C@H](OC)/C=C/C=C(\C)C2 (stereo partly shown) [Lys-mcc-MDC] | more significantly inhibited the tubulin polymerization | – | –
3 | COc1cc2cc(c1Cl)N(C)C(=O)C[C@H](OC(=O)[C@H](C)N(C)C(C)=O)[C@]1(C)O[C@H]1[C@H](C)[C@@H]1C[C@@](O)(NC(=O)O1)[C@H](OC)/C=C/C=C(\C)C2 [Maytansine] | – | 10^−7 mg/mL | 100- to 1000 fold
